Experimental data published in patent US20210163459A1, “PESTICIDALLY ACTIVE AZETIDINE SULFONES AMIDE ISOXAZOLINE DERIVATIVES” (SYNGENTA CROP PROTECTION AG, priority 2018, published 2021).

Columns and labels:
Euschistus heros = Euschistus heros (Neotropical Brown Stink Bug) test on sprayed soybean leaves; type: in vivo; details: 120 h, application rate of 200 ppm, N2 nymphs, assessed 5 days after infestation in comparison to untreated samples, read-out: effect in at least one of the two categories (mortality or growth inhibition)
Description: Euschistus heros(Neotropical Brown Stink Bug)
Soybean leaves on agar in 24-well microtiter plates were sprayed with aqueous test solutions prepared from 10′000 ppm DMSO stock solutions. After drying the leaves were infested with N2 nymphs. The samples were assessed for mortality and growth inhibition in comparison to untreated samples 5 days after infestation.
The following compounds gave an effect of at least 80% in at least one of the two categories (mortality or growth inhibition) at an application rate of 200 ppm: A1, A2

Spodoptera littoralis = Spodoptera littoralis (Egyptian Cotton Leaf Worm) test on sprayed cotton leaf discs; type: in vivo; details: foliar, 72 h, application rate of 200 ppm, L1 larvae, assessed 3 days after infestation in comparison to untreated samples, read-out: control (mortality, anti-feeding effect, growth inhibition)
Description: Spodoptera littoralis (Egyptian Cotton Leaf Worm)
Cotton leaf discs were placed onto agar in 24-well microtiter plates and sprayed with aqueous test solutions prepared from 10′000 ppm DMSO stock solutions. After drying the leaf discs were infested with five L1 larvae. The samples were assessed for mortality, anti-feeding effect, and growth inhibition in comparison to untreated samples 3 days after infestation. Control of Spodoptera littoralis by a test sample is given when at least one of the categories mortality, anti-feedant effect, and growth inhibition is higher than the untreated sample.

COC(=O)OCN(C(=O)c1ccc(C2=NO[C@@](c3cc(Cl)c(F)c(Cl)c3)(C(F)(F)F)C2)cc1C)C1CN(S(=O)(=O)C(F)F)C1 [Compound A2, [[4-[(5S)-5-(3,5-dichloro-4-fluoro-phenyl)-5-(trifluoromethyl)-4H-isoxazol-3-yl]-2-methyl-benzoyl]-[1-(difluoromethylsulfonyl)azetidin-3-yl]amino]methyl methyl carbonate]
percent effect (mortality or growth inhibition) at 200 ppm (Euschistus heros): ≥ 80% | mortality at 200 ppm (Spodoptera littoralis): ≥ 80%
